The test system of the assay is Helicobacter pylori-producing toxin VacA. Kind of assay: Serum anti-s1 m1 VacA IgG (ELISA) in Helicobacter pylori-infected mice. It counts as in vivo, C57BL/6 mice. The settings on record: SAC1 and SAC2 groups (200 and 400 mg/kg SAC). How it is done:
S-allyl-L-Cysteine (SAC) was purchased from TCI Chemical Co. (Tokyo, Japan). Helicobacter pylori was American Type Culture Collection (ATCC) 43504 (cagA+, vacA s1-ml type) and cultured in a Mueller Hinton-Agar broth at 37° C. for 48 hours, under 5% CO2 microaerophilic conditions with a concentration of 1×10^9 CFU/ml.
8-week old male C57BL/6 mice were classified into 4 groups, i.e., a positive control group (to which Helicobacter pylori was administered; PC), a negative control group (to which saline was administered; NC), experimental group 1 (to which Helicobacter pylori and 200 mg/kg of SAC were administered; SAC1), and experimental group 2 (to which Helicobacter pylori and 400 mg/kg of SAC were administered; SAC2). Each group had 10 mice. White powdered SAC was diluted in tap water to concentrations of 20 mg/mL and 40 mg/mL and 10 μl/g (body weight) of the diluted SAC was orally administered to the mice of the SAC1 and SAC2 groups three times a week for 10 weeks. The mice were given free access to tap water for the entire test period. […]
Enzyme-linked immunosorbent assay (ELISA) was used in order to identify the effect of SAC on serum anti-Helicobacter pylori antibody-formation capability. […] 100 μl of 0.2 M sulfuric acid was added thereto to terminate the reaction and absorbance was measured at 450 nm.
For orientation: In an ELISA, binding on a coated surface is turned into a signal by an enzyme label.

Molecules are shown by their SMILES.

As for `C=CCSC[C@H](N)C(=O)O` [SAC, S-allyl-L-cysteine], the “production of antibody against VacA (anti-s1 m1 VacA IgG)” value is recorded as “inhibited in the same manner as in the anti-H. pylori IgG”.

The values above are taken from patent publication US20140024716A1, “Composition Comprising S-Allyl-L-Cysteine as Active Ingredient for Preventing or Treating Gastrointestinal Disorders” (PHARMAKING CO., LTD., priority 2009, published 2014).
